# System: 282377-053-R-J1-PDC complex spheroid viability
# Test: Anticancer human tumor 282377-053-R-J1-PDC patient-derived colon adenocarcinoma cell line growth inhibition [POLQ]
# Details: for IC50: curve of first compound; for viability, T/C: stronger effect = lower value
# Procedure: Multicellular complex tumor spheroid response to Polymerase (POL) inhibitors (novobiocin, ART-558, RP6685) in combination with a variety of drugs and investigational agents in selected tumor cell lines
# The POL inhibitors (novobiocin, ART-558, and RP6685) were evaluated both individually and in combination with standard of care and investigational anticancer small molecules within a complex spheroid model of solid tumors. . Complex spheroids include a stromal component modeled by human endothelial cells (HUVEC) and fibroblasts modeled by human mesenchymal stem cells (MSCs). The concentration ranges selected for each drug and investigational agent were based upon clinically achievable concentrations if the clinical Cmax of the agent was known.
# Compounds. The drugs and investigational agents: novobiocin (NSC847541), ART-558 (NSC835418), RP-6685 (NSC848927), peposertib (NSC802822), ceralasertib (NSC780249), elimusertib (NSC800525), camonsertib (NSC841442), AZD-1390 (NSC803789), olaparib (NSC753686), talazoparib (NSC767125), rucaparib (NSC756644), sotorasib (NSC818433), MRTX-1133 (NSC836407), SN-38 (NSC673596), topotecan (NSC609699), epotoside (NSC141540), doxorubicin (NSC123127), gemcitabine (NSC613327), 5-fluorouracil (NSC19893), paclitaxel (NSC125973), vemurafenib (NSC761431), MSA-2 (NSC828583), SN-011 (NSC837082), adavosertib (NSC754352), prexasertib (NSC758257), carboplatin (NSC241240) and oxaliplatin (NSC266046), were obtained from the National Cancer Institute (NCI) Developmental Therapeutics Program Chemical Repository (21). The FDA-approved anticancer drug set is available from the Developmental Therapeutics Program at https://dtp.cancer.gov/organization/dscb/obtaining/. […] The stock solutions were prepared in dimethyl sulfoxide (DMSO, Sigma-Aldrich, St. Louis, MO, cat. D2650), except for the platinum compounds which were prepared in saline (Quality Biological, Gaithersburg, MD, cat. 114-055-101), at 800-fold the tested concentration and stored at -70 degrees C prior to their use. All drugs and investigational agents were tested over a range starting from a high concentration at or near the clinical Cmax and decreasing in half-log increments. If the clinical Cmax for an agent had not been determined, the highest concentration tested was 10 microM, except for SN-38, which was tested at a high concentration of 1 microM.
# Cell Culture. All cells were maintained in an incubator at 37 degrees C and 5% CO2 with 95% humidity. The PDC lines were cultured according to standard operating procedures established by the NCI PDMR (https://pdmr.cancer.gov). Table 3 of the manuscript, lists the cell lines along with the number of the three cell types plated to form the mct-spheroids and media for tumor cell growth. After thawing, all PDC lines, except 997537-175-T-J1-PDC and 415267-285-R-J2-PDC, were cultured in Matrigel-coated flasks prepared with a working solution of 1X Ham's F-12 nutrient mix, without supplementation (Thermo Fisher Scientific, cat. 11765054), 100 U/mL penicillin-streptomycin (Thermo Fisher Scientific, cat. 15140122), and 2.5% Matrigel (Corning Inc., Corning, NY, cat. 354248) for the first three passages. The two PDC lines 997537-175-T-J1-PDC and 415267-285-R-J2-PDC were cultured on uncoated flasks. The 857933-349-R-J2-PDC line was cultured in 6C/Colon 1B media containing advanced DMEM/F-12 (Thermo Fisher Scientific, cat. 12634028), 10 mM HEPES (Thermo Fisher Scientific, cat. 15630080), 1X GlutaMAX supplement (Thermo Fisher Scientific, cat. 35050061), 0.1 mg/mL primocin (InvivoGen, San Diego, CA, cat. ant-pm-2), 10% defined fetal bovine serum, heat inactivated (HyClone Laboratories Inc., Logan, UT, cat. SH30070.03HI), 50% L-WRN conditioned media (ATCC, cat. CRL-3276), 1.25 mM N-Acetyl-L-cysteine (Sigma-Aldrich, cat. A9165), 10 mM nicotinamide (Sigma-Aldrich, cat. N0636), 1X B-27 supplement (Thermo Fisher Scientific, cat. 17504044), 1X N-2 supplement (Thermo Fisher Scientific, cat. […]
# [1] = second compound 0.0316 µM, first compound 0.0316 µM
# [2] = second compound 0.0316 µM, first compound 0.1 µM
# [3] = second compound 0.1 µM, first compound 0.0316 µM
# [4] = second compound 0.1 µM, first compound 0.1 µM
# [5] = second compound 0.316 µM, first compound 0.0316 µM
# [6] = second compound 0.316 µM, first compound 0.1 µM
# [7] = second compound 1 µM, first compound 0.0316 µM
# [8] = second compound 1 µM, first compound 0.1 µM
# [9] = second compound 3.16 µM, first compound 0.0316 µM
# [10] = second compound 3.16 µM, first compound 0.1 µM
# [11] = second compound 10 µM, first compound 0.0316 µM
# [12] = second compound 10 µM, first compound 0.1 µM
# 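Further: spheroids exposed to compounds for seven days.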
# 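Wherever viability, T/C is given: 100% = DMSO vehicle control viability.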
compound,measurement,setting,value
COc1cc2cc(C(=O)CCC(=O)O)sc2cc1OC + COC1C(OC(N)=O)C(O)C(Oc2ccc3c(O)c(NC(=O)c4ccc(O)c(CC=C(C)C)c4)c(=O)oc3c2C)OC1(C)C,IC50,second compound 0.0316 µM,> 10 µM
same,IC50,second compound 0.1 µM,> 10 µM
same,IC50,second compound 0.316 µM,> 10 µM
same,IC50,second compound 1 µM,> 10 µM
same,IC50,second compound 3.16 µM,> 10 µM
same,IC50,second compound 10 µM,> 10 µM
same,"viability, T/C",[1],118%
same,"viability, T/C",[2],103%
same,"viability, T/C","second compound 0.0316 µM, first compound 0.316 µM",128%
same,"viability, T/C","second compound 0.0316 µM, first compound 1 µM",104%
same,"viability, T/C","second compound 0.0316 µM, first compound 3.16 µM",113%
same,"viability, T/C","second compound 0.0316 µM, first compound 10 µM",99.3%
same,"viability, T/C",[3],105%
same,"viability, T/C",[4],105%
same,"viability, T/C","second compound 0.1 µM, first compound 0.316 µM",116%
same,"viability, T/C","second compound 0.1 µM, first compound 1 µM",107%
same,"viability, T/C","second compound 0.1 µM, first compound 3.16 µM",99.1%
same,"viability, T/C","second compound 0.1 µM, first compound 10 µM",88.3%
same,"viability, T/C",[5],121%
same,"viability, T/C",[6],102%
same,"viability, T/C","second compound 0.316 µM, first compound 0.316 µM",83.1%
same,"viability, T/C","second compound 0.316 µM, first compound 1 µM",105%
same,"viability, T/C","second compound 0.316 µM, first compound 3.16 µM",86.9%
same,"viability, T/C","second compound 0.316 µM, first compound 10 µM",93.2%
same,"viability, T/C",[7],109%
same,"viability, T/C",[8],97.1%
same,"viability, T/C","second compound 1 µM, first compound 0.316 µM",109%
same,"viability, T/C","second compound 1 µM, first compound 1 µM",97.1%
same,"viability, T/C","second compound 1 µM, first compound 3.16 µM",114%
same,"viability, T/C","second compound 1 µM, first compound 10 µM",86.6%
same,"viability, T/C",[9],111%
same,"viability, T/C",[10],87.3%
same,"viability, T/C","second compound 3.16 µM, first compound 0.316 µM",119%
same,"viability, T/C","second compound 3.16 µM, first compound 1 µM",99.5%
same,"viability, T/C","second compound 3.16 µM, first compound 3.16 µM",86.7%
same,"viability, T/C","second compound 3.16 µM, first compound 10 µM",115%
same,"viability, T/C",[11],99%
same,"viability, T/C",[12],93.7%
same,"viability, T/C","second compound 10 µM, first compound 0.316 µM",117%
same,"viability, T/C","second compound 10 µM, first compound 1 µM",115%
same,"viability, T/C","second compound 10 µM, first compound 3.16 µM",105%
same,"viability, T/C","second compound 10 µM, first compound 10 µM",123%
Cn1ncnc1[C@H]1c2n[nH]c(=O)c3cc(F)cc(c23)N[C@@H]1c1ccc(F)cc1 + COC1C(OC(N)=O)C(O)C(Oc2ccc3c(O)c(NC(=O)c4ccc(O)c(CC=C(C)C)c4)c(=O)oc3c2C)OC1(C)C,IC50,second compound 0.0316 µM,> 0.1 µM
same,IC50,second compound 0.1 µM,> 0.1 µM
same,IC50,second compound 0.316 µM,> 0.1 µM
same,IC50,second compound 1 µM,> 0.1 µM
same,IC50,second compound 3.16 µM,> 0.1 µM
same,IC50,second compound 10 µM,> 0.1 µM
same,"viability, T/C","second compound 0.0316 µM, first compound 0.000316 µM",126%
same,"viability, T/C","second compound 0.0316 µM, first compound 0.001 µM",108%
same,"viability, T/C","second compound 0.0316 µM, first compound 0.00316 µM",101%
same,"viability, T/C","second compound 0.0316 µM, first compound 0.01 µM",98.1%
same,"viability, T/C",[1],103%
same,"viability, T/C",[2],97.4%
same,"viability, T/C","second compound 0.1 µM, first compound 0.000316 µM",106%
same,"viability, T/C","second compound 0.1 µM, first compound 0.001 µM",122%
same,"viability, T/C","second compound 0.1 µM, first compound 0.00316 µM",92%
same,"viability, T/C","second compound 0.1 µM, first compound 0.01 µM",100%
same,"viability, T/C",[3],118%
same,"viability, T/C",[4],103%
same,"viability, T/C","second compound 0.316 µM, first compound 0.000316 µM",97.5%
same,"viability, T/C","second compound 0.316 µM, first compound 0.001 µM",81.7%
same,"viability, T/C","second compound 0.316 µM, first compound 0.00316 µM",85.4%
same,"viability, T/C","second compound 0.316 µM, first compound 0.01 µM",111%
same,"viability, T/C",[5],102%
same,"viability, T/C",[6],132%
same,"viability, T/C","second compound 1 µM, first compound 0.000316 µM",105%
same,"viability, T/C","second compound 1 µM, first compound 0.001 µM",111%
same,"viability, T/C","second compound 1 µM, first compound 0.00316 µM",111%
same,"viability, T/C","second compound 1 µM, first compound 0.01 µM",90.5%
same,"viability, T/C",[7],118%
same,"viability, T/C",[8],98.1%
same,"viability, T/C","second compound 3.16 µM, first compound 0.000316 µM",88.2%
same,"viability, T/C","second compound 3.16 µM, first compound 0.001 µM",106%
same,"viability, T/C","second compound 3.16 µM, first compound 0.00316 µM",92.1%
same,"viability, T/C","second compound 3.16 µM, first compound 0.01 µM",99.5%
same,"viability, T/C",[9],107%
same,"viability, T/C",[10],126%
same,"viability, T/C","second compound 10 µM, first compound 0.000316 µM",112%
same,"viability, T/C","second compound 10 µM, first compound 0.001 µM",98.5%
same,"viability, T/C","second compound 10 µM, first compound 0.00316 µM",104%
same,"viability, T/C","second compound 10 µM, first compound 0.01 µM",102%
same,"viability, T/C",[11],105%
same,"viability, T/C",[12],105%
